ChEMBL document CHEMBL1137066, “Tryptamine-based human beta3-adrenergic receptor agonists. Part 2: SAR of the methylene derivatives” (Bioorg Med Chem Lett, 2004)

What was measured:
[1] = target: T1, Beta-1 adrenergic receptor (Homo sapiens, UniProt P08588); assay: Agonistic activity at human Beta-1 adrenergic receptor at 1000 nM concentration; assay type: functional
Target sequence in this assay (P08588 whole entry, looked up): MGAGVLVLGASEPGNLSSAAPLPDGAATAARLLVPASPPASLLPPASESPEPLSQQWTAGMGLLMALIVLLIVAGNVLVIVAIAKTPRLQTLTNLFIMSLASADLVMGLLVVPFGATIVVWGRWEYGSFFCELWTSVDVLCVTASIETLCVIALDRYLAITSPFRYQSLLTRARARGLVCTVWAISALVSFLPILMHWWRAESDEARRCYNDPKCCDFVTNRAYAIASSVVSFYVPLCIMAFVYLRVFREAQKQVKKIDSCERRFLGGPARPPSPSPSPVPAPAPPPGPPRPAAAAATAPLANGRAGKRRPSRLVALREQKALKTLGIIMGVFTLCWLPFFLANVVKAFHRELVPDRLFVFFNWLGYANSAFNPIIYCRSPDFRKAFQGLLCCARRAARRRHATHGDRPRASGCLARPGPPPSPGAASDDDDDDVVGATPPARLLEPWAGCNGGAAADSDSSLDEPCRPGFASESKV

[2] = target: T2, Beta-2 adrenergic receptor (Homo sapiens, UniProt P07550); assay: (§1) Agonistic activity at human Beta-2 adrenergic receptor at 1000 nM concentration; assay type: functional
Target sequence in this assay (P07550 whole entry, looked up): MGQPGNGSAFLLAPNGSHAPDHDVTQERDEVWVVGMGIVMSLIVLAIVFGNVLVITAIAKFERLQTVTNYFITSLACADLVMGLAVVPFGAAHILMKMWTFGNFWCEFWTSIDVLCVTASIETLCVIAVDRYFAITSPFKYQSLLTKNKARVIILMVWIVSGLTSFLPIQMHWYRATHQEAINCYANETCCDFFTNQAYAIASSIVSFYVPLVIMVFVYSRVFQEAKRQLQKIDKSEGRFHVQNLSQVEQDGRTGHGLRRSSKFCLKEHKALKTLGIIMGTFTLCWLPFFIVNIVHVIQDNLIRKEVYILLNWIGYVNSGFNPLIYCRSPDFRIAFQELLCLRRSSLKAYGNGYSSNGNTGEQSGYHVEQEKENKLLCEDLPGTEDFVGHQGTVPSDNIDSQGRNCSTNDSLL

[3] = target: T3, Beta-3 adrenergic receptor (Homo sapiens, UniProt P13945); assay: Agonistic activity was determined by measuring cAMP accumulation in CHO cells expressing cloned human Beta-3 adrenergic receptor; assay type: functional, cell-based
Target sequence in this assay (P13945 whole entry): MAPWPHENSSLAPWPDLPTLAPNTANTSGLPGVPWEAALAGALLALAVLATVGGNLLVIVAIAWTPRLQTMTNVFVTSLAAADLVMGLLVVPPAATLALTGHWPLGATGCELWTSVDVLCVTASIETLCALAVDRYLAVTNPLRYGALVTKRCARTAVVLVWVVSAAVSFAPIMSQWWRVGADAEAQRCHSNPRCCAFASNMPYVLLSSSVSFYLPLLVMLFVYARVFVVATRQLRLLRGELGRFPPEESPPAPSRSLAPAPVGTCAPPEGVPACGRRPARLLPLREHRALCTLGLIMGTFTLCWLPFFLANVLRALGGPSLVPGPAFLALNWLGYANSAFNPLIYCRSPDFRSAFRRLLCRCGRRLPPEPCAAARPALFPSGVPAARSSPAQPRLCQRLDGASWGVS

[4] = target: T3, Beta-3 adrenergic receptor; assay: Intrinsic activity expressed as percentage of maximal stimulation with isoproterenol of Beta-3 adrenergic receptor; assay type: functional
Target sequence in this assay (P13945 whole entry, looked up): as the sequence (P13945 whole entry) above

[5] = target: T2, Beta-2 adrenergic receptor; assay: Binding inhibition constant was determined by inhibition of [125I]iodocyanopindolol binding to Beta-2 adrenergic receptor
Target sequence in this assay (P07550 whole entry): as the sequence (P07550 whole entry, looked up) above

[6] = target: T3, Beta-3 adrenergic receptor; assay: Binding inhibition constant was determined by inhibition of [125I]iodocyanopindolol binding to Beta-3 adrenergic receptor
Target sequence in this assay (P13945 whole entry): as the sequence (P13945 whole entry) above

[7] = target: T1, Beta-1 adrenergic receptor; assay: Binding inhibition constant was determined by inhibition of [125I]-iodocyanopindolol binding to Beta-1 adrenergic receptor
Target sequence in this assay (P08588 whole entry): as the sequence (P08588 whole entry, looked up) above

[8] = target: T1, Beta-1 adrenergic receptor; assay: Agonistic activity was determined by measuring cAMP accumulation in CHO cells expressing cloned human Beta-1 adrenergic receptor; assay type: functional, cell-based
Target sequence in this assay (P08588 whole entry): as the sequence (P08588 whole entry, looked up) above

[9] = target: T2, Beta-2 adrenergic receptor; assay: Agonistic activity was determined by measuring cAMP accumulation in CHO cells expressing cloned human Beta-2 adrenergic receptor; assay type: functional, cell-based
Target sequence in this assay (P07550 whole entry): as the sequence (P07550 whole entry, looked up) above

[10] = target: T1, Beta-1 adrenergic receptor; assay: Intrinsic activity expressed as percentage of maximal stimulation with isoproterenol of Beta-1 adrenergic receptor; assay type: functional
Target sequence in this assay (P08588 whole entry, looked up): as the sequence (P08588 whole entry, looked up) above

[11] = target: T3, Beta-3 adrenergic receptor; assay: as §1; assay type: functional
Target sequence in this assay (P13945 whole entry, looked up): as the sequence (P13945 whole entry) above

[12] = target: T2, Beta-2 adrenergic receptor; assay: Intrinsic activity determined by measuring cAMP accumulation in CHO cells expressing cloned human Beta-2 adrenergic receptor and activity expressed as percentage of maximal stimulation with isoproterenol; assay type: functional, cell-based
Target sequence in this assay (P07550 whole entry, looked up): as the sequence (P07550 whole entry, looked up) above

| Activity [1] [%] | Activity [2] [%] | EC50 [3] [nM] | IA [4] [%] | Ki [5] [nM] | Ki [6] [nM] | Ki [7] [nM] | EC50 [8] [nM] | EC50 [9] [nM] | IA [10] [%] | IA [11] [%] | Activity [12] [%] | SMILES |
| --- | --- | --- | --- | --- | --- | --- | --- | --- | --- | --- | --- | --- |
| 7 | 9 | 3 | 80 | – | – | – | – | – | – | – | – | CS(=O)(=O)Oc1cccc2c(CCNC[C@H](O)c3cccc(NS(=O)(=O)c4ccccc4N)c3)c[nH]c12 |
| 3 | 6 | 0.31 | 105 | 70 | 2.6 | 89 | – | – | – | – | – | CS(=O)(=O)Oc1cccc2c(CCNC[C@H](O)c3cccc(NS(=O)(=O)c4cccc(N)c4)c3)c[nH]c12 |
| 11 | – | 1 | – | – | – | – | – | – | – | 96 | 13 | CS(=O)(=O)Oc1cccc2c(CCNC[C@H](O)c3cccc(NS(=O)(=O)c4cccc(Cl)c4)c3)c[nH]c12 |
| 11 | 10 | 0.94 | 97 | – | – | – | – | – | – | – | – | COc1cccc(S(=O)(=O)Nc2cccc([C@@H](O)CNCCc3c[nH]c4c(OS(C)(=O)=O)cccc34)c2)c1 |
| 10 | 8 | 2.4 | 97 | – | – | – | – | – | – | – | – | CS(=O)(=O)Oc1cccc2c(CCNC[C@H](O)c3cccc(NS(=O)(=O)c4cccc(F)c4)c3)c[nH]c12 |
| 14 | 15 | 2 | 86 | – | – | – | – | – | – | – | – | CS(=O)(=O)Oc1cccc2c(CCNC[C@H](O)c3cccc(NS(=O)(=O)c4ccccc4)c3)c[nH]c12 |
| 12 | 23 | 1.7 | 89 | 223 | 33 | 230 | – | – | – | – | – | CS(=O)(=O)Oc1cccc2c(CCNC[C@H](O)c3cccc(NS(=O)(=O)c4cccs4)c3)c[nH]c12 |
| 5 | 15 | 8.4 | 85 | – | – | – | – | – | – | – | – | CS(=O)(=O)Oc1cccc2c(CCNC[C@H](O)c3cccc(NS(=O)(=O)c4ccc(N)cc4)c3)c[nH]c12 |

The next lines start with the compound.

| SMILES | Activity [1] [%] | Activity [2] [%] | EC50 [3] [nM] | IA [4] [%] | Ki [5] [nM] | Ki [6] [nM] | Ki [7] [nM] | EC50 [8] [nM] | EC50 [9] [nM] | IA [10] [%] | IA [11] [%] | Activity [12] [%] |
| --- | --- | --- | --- | --- | --- | --- | --- | --- | --- | --- | --- | --- |
| CS(=O)(=O)Oc1cccc2c(CCNC[C@H](O)c3cccc(NS(=O)(=O)CC(F)(F)F)c3)c[nH]c12 | 0 | 24 | 48 | 49 | – | – | – | – | – | – | – | – |
| CS(=O)(=O)Oc1cccc2c(CCNC[C@H](O)c3cccc(NS(=O)(=O)c4cc(Cl)c(Cl)s4)c3)c[nH]c12 | 7 | 18 | 6.7 | 93 | – | – | – | – | – | – | – | – |
| O=S(=O)(Nc1cccc([C@@H](O)CNCCc2c[nH]c3c(OCc4ccccc4)cccc23)c1)c1cccs1 | 10 | 32 | 7.6 | 81 | – | – | – | – | – | – | – | – |
| C[C@H](Cc1c[nH]c2c(OS(C)(=O)=O)cccc12)NC[C@H](O)c1cccc(NS(=O)(=O)c2cccs2)c1 | – | – | 0.21 | 97 | 48 | 4 | 66 | 44 | 18 | 36 | – | – |
| O=S(=O)(Nc1cccc([C@@H](O)CNCCc2c[nH]c3ccccc23)c1)c1cccs1 | 2 | 15 | 21 | 73 | – | – | – | – | – | – | – | – |
| COc1cccc2c(CCNC[C@H](O)c3cccc(NS(=O)(=O)c4cccs4)c3)c[nH]c12 | 6 | 16 | 13 | 87 | – | – | – | – | – | – | – | – |
| CS(=O)(=O)Oc1cccc2c(CCNC[C@H](O)c3cccc(NS(=O)(=O)c4ccc(Br)s4)c3)c[nH]c12 | 6 | 17 | 2.8 | 82 | – | – | – | – | – | – | – | – |
| Cc1cccc2c(CCNC[C@H](O)c3cccc(NS(=O)(=O)c4cccs4)c3)c[nH]c12 | 3 | 9 | 25 | 77 | – | – | – | – | – | – | – | – |
